Measured values taken from patent publication US8877748B2, “Heterocyclic fused anthraquinone derivatives, manufacturing method and pharmaceutical composition using thereof” (National Defense Medical Center, priority 2012, dated 2014).

Assays:
NCI-H522 = experiment: NCI one-dose screening, non-small cell lung cancer NCI-H522; type: cell-based, human; details: 10 μM
OVCAR-3 = experiment: NCI one-dose screening, ovarian cancer OVCAR-3; type: cell-based, human; details: 10 μM
HCT-15 = experiment: NCI one-dose screening, colon cancer HCT-15; type: cell-based, human; details: 10 μM
HCC-2998 = experiment: NCI one-dose screening, colon cancer HCC-2998; type: cell-based, human; details: 10 μM
COLO 205 = experiment: NCI one-dose screening, colon cancer COLO 205; type: cell-based, human; details: 10 μM
SK-MEL-28 = experiment: NCI one-dose screening, melanoma SK-MEL-28; type: cell-based, human; details: 10 μM
CCRF-CEM = experiment: NCI screening platform one-dose single concentration screening, leukemia CCRF-CEM; type: cell-based, human; details: 10 μM
786-O = experiment: NCI one-dose screening, renal cancer 786-O; type: cell-based, human; details: 10 μM
HOP-92 = experiment: NCI one-dose screening, non-small cell lung cancer HOP-92; type: cell-based, human; details: 10 μM
MCF7 = experiment: NCI one-dose screening, breast cancer MCF7; type: cell-based, human; details: 10 μM
[1] = NCI one-dose screening, renal cancer A489; type: cell-based, human; details: 10 μM
RXF, 393 = experiment: NCI one-dose screening, renal cancer RXF, 393; type: cell-based, human; details: 10 μM
U251 = experiment: NCI one-dose screening, CNS cancer U251; type: cell-based, human; details: 10 μM
TK-10 = experiment: NCI one-dose screening, renal cancer TK-10; type: cell-based, human; details: 10 μM
M14 = experiment: NCI one-dose screening, melanoma M14; type: cell-based, human; details: 10 μM
IGROV1 = experiment: NCI one-dose screening, ovarian cancer IGROV1; type: cell-based, human; details: 10 μM
SR = experiment: NCI one-dose screening, leukemia SR; type: cell-based, human; details: 10 μM
SK-OV-3 = experiment: NCI one-dose screening, ovarian cancer SK-OV-3; type: cell-based, human; details: 10 μM
DU145 = experiment: NCI one-dose screening, prostate cancer DU145; type: cell-based, human; details: 10 μM
NCI-H460 = experiment: NCI one-dose screening, non-small cell lung cancer NCI-H460; type: cell-based, human; details: 10 μM
HCT-116 = experiment: NCI one-dose screening, colon cancer HCT-116; type: cell-based, human; details: 10 μM
OVCAR-8 = experiment: NCI one-dose screening, ovarian cancer OVCAR-8; type: cell-based, human; details: 10 μM
NCI-H23 = experiment: NCI one-dose screening, non-small cell lung cancer NCI-H23; type: cell-based, human; details: 10 μM
T-47D = experiment: NCI one-dose screening, breast cancer T-47D; type: cell-based, human; details: 10 μM
UACC-257 = experiment: NCI one-dose screening, melanoma UACC-257; type: cell-based, human; details: 10 μM
HL-60, TB = experiment: NCI one-dose screening, leukemia HL-60, TB; type: cell-based, human; details: 10 μM
UO-31 = experiment: NCI one-dose screening, renal cancer UO-31; type: cell-based, human; details: 10 μM
PC-3 = experiment: NCI one-dose screening, prostate cancer PC-3; type: cell-based, human; details: 10 μM
LOX IMVI = experiment: NCI one-dose screening, melanoma LOX IMVI; type: cell-based, human; details: 10 μM
MALME-3M = experiment: NCI one-dose screening, melanoma MALME-3M; type: cell-based, human; details: 10 μM
SF-295 = experiment: NCI one-dose screening, CNS cancer SF-295; type: cell-based, human; details: 10 μM
MOLT-4 = experiment: NCI one-dose screening, leukemia MOLT-4; type: cell-based, human; details: 10 μM
SK-MEL-5 = experiment: NCI one-dose screening, melanoma SK-MEL-5; type: cell-based, human; details: 10 μM
K562cell line = experiment: NCI one-dose screening, leukemia K562; type: cell-based, human; details: 10 μM
SK-MEL-2 = experiment: NCI one-dose screening, melanoma SK-MEL-2; type: cell-based, human; details: 10 μM
NCI-H322M = experiment: NCI one-dose screening, non-small cell lung cancer NCI-H322M; type: cell-based, human; details: 10 μM; Non-small cell lung cancer
SN12C = experiment: NCI one-dose screening, renal cancer SN12C; type: cell-based, human; details: 10 μM
OVCAR-4 = experiment: NCI one-dose screening, ovarian cancer OVCAR-4; type: cell-based, human; details: 10 μM
PRMI-8226 cell line = experiment: NCI one-dose screening, leukemia PRMI-8226; type: cell-based, human; details: 10 μM
KM12 = experiment: NCI one-dose screening, colon cancer KM12; type: cell-based, human; details: 10 μM
human tumor cell lines = experiment: NCI one-dose screening, Mean / Delta / Range of growth percent over all tested cell lines; type: cell-based; details: 10 μM
[2] = tested on: PC-3 prostate cancer cell line; experiment: SRB assay cell viability, PC-3 prostate cancer cell line; type: cell-based, human; details: PC-3 prostate cancer cell line, Table II prints no unit, μM printed, read-out: SRB assay: 50% inhibition of cancer cell proliferation of sample concentration (IC50) of PC-3 prostate cancer cell line
MDA-MB-231/ATCC = experiment: NCI one-dose screening, breast cancer MDA-MB-231/ATCC; type: cell-based, human; details: 10 μM
SF-268 = experiment: NCI one-dose screening, CNS cancer SF-268; type: cell-based, human; details: 10 μM
SF-539 = experiment: NCI one-dose screening, CNS cancer SF-539; type: cell-based, human; details: 10 μM
A549/ATCC = experiment: NCI one-dose screening, non-small cell lung cancer A549/ATCC; type: cell-based, human; details: 10 μM
MDA-MB-468 = experiment: NCI one-dose screening, breast cancer MDA-MB-468; type: cell-based, human; details: 10 μM
SNB-19 = experiment: NCI one-dose screening, CNS cancer SNB-19; type: cell-based, human; details: 10 μM
BT-549 = experiment: NCI one-dose screening, breast cancer BT-549; type: cell-based, human; details: 10 μM
HOP-62 = experiment: NCI one-dose screening, non-small cell lung cancer HOP-62; type: cell-based, human; details: 10 μM
UACC-62 = experiment: NCI one-dose screening, melanoma UACC-62; type: cell-based, human; details: 10 μM
SNB-75 = experiment: NCI one-dose screening, CNS cancer SNB-75; type: cell-based, human; details: 10 μM
HS 578-T = experiment: NCI one-dose screening, breast cancer HS 578-T; type: cell-based, human; details: 10 μM; Breast cancer
CAKI-1 = experiment: NCI one-dose screening, renal cancer CAKI-1; type: cell-based, human; details: 10 μM

O=C1c2ccccc2C(=O)c2c1cc(Cl)c1nsnc21 [C2, 4-Chloro-anthraquinone[2,1-c][1,2,5] thiadiazole-6,11-dione]
Growth Percent NCI-H522 (NCI-H522): 100.18% | Growth Percent OVCAR-3 (OVCAR-3): 49.88% | Growth Percent HCT-15 (HCT-15): 96.8% | Growth Percent HCC-2998 (HCC-2998): 105.67% | Growth Percent COLO 205 (COLO 205): 99.08% | Growth Percent SK-MEL-28 (SK-MEL-28): 131.75% | Growth Percent CCRF-CEM (CCRF-CEM): −41.78% | Growth Percent 786-0 (786-O): 102.14% | Growth Percent HOP-92 (HOP-92): 75.8% | Growth Percent MCF7 (MCF7): 65.36% | Growth Percent A498 [1]: 93.79% | Growth Percent RXF 393 (RXF, 393): 71.92% | Growth Percent U251 (U251): 29.19% | Growth Percent TK-10 (TK-10): 134.06% | Growth Percent M14 (M14): 102.73% | Growth Percent IGROV1 (IGROV1): 52.47% | Growth Percent SR (SR): −23.86% | Growth Percent SK-OV-3 (SK-OV-3): 109.05% | Growth Percent DU145 (DU145): 96.95% | Growth Percent NCI-H460 (NCI-H460): 108.2% | Growth Percent HCT-116 (HCT-116): 48.15% | Growth Percent OVCAR-8 (OVCAR-8): −4.57% | Growth Percent NCI-H23 (NCI-H23): 100.39% | Growth Percent T-47D (T-47D): −54.59% | Growth Percent UACC-257 (UACC-257): 76.09% | Growth Percent HL-60(TB) (HL-60, TB): 1.87% | Growth Percent UO-31 (UO-31): 80.15% | Growth Percent PC-3 (PC-3): 23.54% | Growth Percent LOX IMVI (LOX IMVI): 10.23% | Growth Percent MALME-3M (MALME-3M): 97.09% | Growth Percent SF-295 (SF-295): 109.08% | Growth Percent MOLT-4 (MOLT-4): −34.12% | Growth Percent SK-MEL-5 (SK-MEL-5): 72.45% | Growth Percent K562 (K562cell line): 2.44% | Growth Percent SK-MEL-2 (SK-MEL-2): 0.21% | Growth Percent NCI-H322M (NCI-H322M): 75.02% | Growth Percent SN12C (SN12C): 71.92% | Growth Percent OVCAR-4 (OVCAR-4): −75.03% | Growth Percent RPMI-8226 (PRMI-8226 cell line): 27.81% | Growth Percent KM12 (KM12): 95.88% | Growth Percent Delta (human tumor cell lines; delta over all cell lines): 143.22% | Growth Percent Mean (human tumor cell lines; mean over all cell lines): 54.91% | Growth Percent Range (human tumor cell lines; range over all cell lines): 222.37% | IC50 [2]: 13.5 µM | Growth Percent MDA-MB-231/ATCC (MDA-MB-231/ATCC): −23.35% | Growth Percent SF-268 (SF-268): 37.03% | Growth Percent SF-539 (SF-539): 108.52% | Growth Percent A549/ATCC (A549/ATCC): 103.21% | Growth Percent MDA-MB-468 (MDA-MB-468): −88.31% | Growth Percent SNB-19 (SNB-19): 105.75% | Growth Percent BT-549 (BT-549): 101.5% | Growth Percent HOP-62 (HOP-62): 82.19% | Growth Percent UACC-62 (UACC-62): 72.91% | Growth Percent SNB-75 (SNB-75): 85.25% | Growth Percent HS 578T (HS 578-T): 72.54% | Growth Percent CAKI-1 (CAKI-1): 96.51%
